Measurements as given in patent US8906928B2, “Substituted pyrazolo-pyrrolo-pyridine-dione compounds” (ArQule, Inc., priority 2009, dated 2014).

Tests used:
Assay type in all cases: cell-based
PC-3 = assay: MTS assay (cell growth inhibition), PC-3; details: PC-3 cells, 72 hours incubation with test compound; concentration not given
In short: (§1)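 First, seed 3000 cells per well in low-serum (1% FBS) DMEM and culture 18 h. Next, add compounds prepared at 300× in DMSO and diluted 1:40 in DMEM; incubate 72 h. Finally, add MTS/PMS for 4 h and measure absorbance at 492 nm.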

Kato III = assay: MTS assay (cell growth inhibition), Kato III; details: Kato III cells, 72 hours incubation with test compound; concentration not given
In short: as §1

DLD-1 = assay: MTS assay (cell growth inhibition), DLD-1; details: DLD-1 cells, 72 hours incubation with test compound; concentration not given
In short: as §1

MDA-MB = assay: MTS assay (cell growth inhibition), MDA-MB; details: MDA-MB cells, 72 hours incubation with test compound; concentration not given
In short: as §1

NCI-H1299 = assay: MTS assay (cell growth inhibition), NCI-H1299; details: NCI-H1299 cells, 72 hours incubation with test compound; concentration not given
In short: as §1

PACA-2 = assay: MTS assay (cell growth inhibition), PACA-2; details: PACA-2 cells, 72 hours incubation with test compound; concentration not given
In short: as §1

SMILES	MTS CELL KILL DATA (% INHIBITION) PC-3 (PC-3)	MTS CELL KILL DATA (% INHIBITION) Kato III (Kato III)	MTS CELL KILL DATA (% INHIBITION) DLD-1 (DLD-1)	MTS CELL KILL DATA (% INHIBITION) MDA-MB (MDA-MB)	MTS CELL KILL DATA (% INHIBITION) NCI-H1299 (NCI-H1299)	MTS CELL KILL DATA (% INHIBITION) PACA-2 (PACA-2)
O=C1c2cnc3[nH]ncc3c2C(=O)N1Cc1ccc(Cl)c(C(F)(F)F)c1 [Example 136, 7-[4-chloro-3-(trifluoromethyl)benzyl]pyrazolo[3,4-b]pyrrolo[3,4-d]pyridine-6,8(3H,7H)-dione]	C (C = <50% INHIBITION)	C (C = <50% INHIBITION)	C (C = <50% INHIBITION)	C (C = <50% INHIBITION)	C (C = <50% INHIBITION)	C (C = <50% INHIBITION)
O=C1c2cnc3[nH]nc(-c4cncnc4)c3c2C(=O)N1CCc1ccccc1 [Example 151, 7-(2-phenylethyl)-1-pyrimidin-5-ylpyrazolo[3,4-b]pyrrolo[3,4-d]pyridine-6,8(3H,7H)-dione]	B (B = 50-79% INHIBITION)	A (A = 80-100% INHIBITION)	A (A = 80-100% INHIBITION)	C (C = <50% INHIBITION)	C (C = <50% INHIBITION)	A (A = 80-100% INHIBITION)
O=C1c2cnc3[nH]nc(-c4cc5ccccc5o4)c3c2C(=O)N1CCc1ccccc1 [Example 158, 1-(1-benzofuran-2-yl)-7-(2-phenylethyl)pyrazolo[3,4-b]pyrrolo[3,4-d]pyridine-6,8(3H,7H)-dione]	B (B = 50-79% INHIBITION)	A (A = 80-100% INHIBITION)	B (B = 50-79% INHIBITION)	B (B = 50-79% INHIBITION)	A (A = 80-100% INHIBITION)	C (C = <50% INHIBITION)
CSc1cccc(-c2n[nH]c3ncc4c(c23)C(=O)N(CCc2ccccc2)C4=O)c1 [Example 159, 1-[3-(methylsulfanyl)phenyl]-7-(2-phenylethyl)pyrazolo[3,4-b]pyrrolo[3,4-d]pyridine-6,8(3H,7H)-dione]	A (A = 80-100% INHIBITION)	A (A = 80-100% INHIBITION)	A (A = 80-100% INHIBITION)	A (A = 80-100% INHIBITION)	A (A = 80-100% INHIBITION)	A (A = 80-100% INHIBITION)
NC(=O)c1ccc(-c2n[nH]c3ncc4c(c23)C(=O)N(CCc2ccccc2)C4=O)cc1 [Example 160, 4-[6,8-dioxo-7-(2-phenylethyl)-3,6,7,8-tetrahydropyrazolo[3,4-b]pyrrolo[3,4-d]pyridin-1-yl]benzamide]	A (A = 80-100% INHIBITION)	A (A = 80-100% INHIBITION)	A (A = 80-100% INHIBITION)	A (A = 80-100% INHIBITION)	B (B = 50-79% INHIBITION)	A (A = 80-100% INHIBITION)
O=C1c2cnc3[nH]nc(-c4ccc(F)c(F)c4)c3c2C(=O)N1CCc1ccccc1 [Example 162, 1-(3,4-difluorophenyl)-7-(2-phenylethyl)pyrazolo[3,4-b]pyrrolo[3,4-d]pyridine-6,8(3H,7H)-dione]	C (C = <50% INHIBITION)	C (C = <50% INHIBITION)	C (C = <50% INHIBITION)	C (C = <50% INHIBITION)	C (C = <50% INHIBITION)	B (B = 50-79% INHIBITION)
O=C1c2cnc3[nH]nc(-c4cccc(F)c4)c3c2C(=O)N1CCc1ccccc1 [Example 165, 1-(3-fluorophenyl)-7-(2-phenylethyl)pyrazolo[3,4-b]pyrrolo[3,4-d]pyridine-6,8(3H,7H)-dione]	A (A = 80-100% INHIBITION)	A (A = 80-100% INHIBITION)	A (A = 80-100% INHIBITION)	A (A = 80-100% INHIBITION)	C (C = <50% INHIBITION)	A (A = 80-100% INHIBITION)
CC(C)(C)c1ccc(-c2n[nH]c3ncc4c(c23)C(=O)N(CCc2ccccc2)C4=O)cc1 [Example 166, 1-(4-tert-butylphenyl)-7-(2-phenylethyl)pyrazolo[3,4-b]pyrrolo[3,4-d]pyridine-6,8(3H,7H)-dione]	C (C = <50% INHIBITION)	C (C = <50% INHIBITION)	A (A = 80-100% INHIBITION)	A (A = 80-100% INHIBITION)	C (C = <50% INHIBITION)	B (B = 50-79% INHIBITION)
CC(=O)Nc1cccc(-c2n[nH]c3ncc4c(c23)C(=O)N(CCc2ccccc2)C4=O)c1 [Example 167, N-{3-[6,8-dioxo-7-(2-phenylethyl)-3,6,7,8-tetrahydropyrazolo[3,4-b]pyrrolo[3,4-d]pyridin-1-yl]phenyl}acetamide]	A (A = 80-100% INHIBITION)	A (A = 80-100% INHIBITION)	A (A = 80-100% INHIBITION)	A (A = 80-100% INHIBITION)	A (A = 80-100% INHIBITION)	A (A = 80-100% INHIBITION)
